What was measured:
c-Abl = test: Nuclear targeting of c-Abl in HCT116/vector, HCT116/MUC1 and mutant cells after CDDP; type: cell-based, human
Text: Cell culture. Human HeLa cervical cancer cells, HCT116/vector (HCT116 colorectal carcinoma cells stably transfected with an empty vector), HCT116/MUC1 (HCT116 colorectal carcinoma cells stably transfected with an expression vector encoding a MUC1 polypeptide), HCT116/MUC1(Y46F) (HCT116 colorectal carcinoma cells stably transfected with an expression vector encoding a mutant MUC1 polypeptide containing an amino acid substitution at position 46 changing a tyrosine (Y) to phenylalanine (F)) colon cancer cells (Ren et al., (2002) J. Biol. Chem. 277: 17616-17622) and 293 cells were cultured in Dulbecco's modified medium with 10% heat-inactivated fetal bovine serum, 100 units/ml penicillin, 100 μg/ml streptomycin and 2 mM L-glutamine. Human ZR-75-1/vector (ZR-75-1 breast cancer cells stably transfected with an empty vector) and ZR-75-1/MUC1siRNA (ZR-75-1 breast cancer cells stably transfected with an expression vector encoding an siRNA specific for MUC1) breast cancer cells (Ren et al., (2004) Cancer Cell 5:163-175) were grown in RPMI1640 medium containing 10% heat-inactivated fetal bovine serum and antibiotics. Cells were treated with 1 μM adriamycin (ADR; Calbiochem), 100 μM cisplatin (CDDP; Sigma) or 10 μM STI571 (Gleevec; Novartis, Basel, Switzerland).
Subcellular fractionation. Nuclear fractions were prepared as described (Kharbanda et al., (1996) Cancer Res. 56:3617-3621). Cytosolic fractions were prepared as described (Hill et al., (2004) EMBO J. 23:2134-2145). Cell membrane fractions were prepared with the Plasma Membrane Extraction Kit (BioVision Research Products, Mountain View, Calif.). Mitochondria were purified as described (Ren et al., (2004) Cancer Cell 5:163-175; Ren et al., (2006) Oncogene 25:20-31).
(§1) Immunoprecipitations and immunoblot analysis. Cell lysates were prepared as described (Kharbanda et al., (1995) Nature 376:785-788); Yoshida et al., (2005) Nat. Cell Biol. 7:278-285). Soluble proteins were incubated with anti-MUC1-N (Kufe et al., (1984) Hybridoma 3:223-232), anti-MUC1-C (Ab5; Neomarker, Montreal, Quebec), anti-Flag (Sigma, St. Louis, Mo.), anti-c-Abl (Ab3; Oncogene, San Diego, Calif.) or anti-14-3-3 (Abcam Inc., Cambridge, Mass.) antibodies for 2 hours at 4° C., followed by precipitation with protein G-Sepharose beads for 1 hour. […] Intensity of the signals was determined by densitometric scanning. Statistical significance was determined by the Student's t-test.

MUC1 and c-Abl = test: Co-immunoprecipitation of c-Abl with MUC1 (anti-MUC1-N precipitates) after CDDP; type: cell-based, human; details: HCT116/MUC1 cells; CDDP, 1, 2 and 4 hours
Protocol: as §1, with “hour. Immune complexes and cell lysates (50 μg) were subjected to immunoblot analysis with anti-MUC1-N, anti-MUC1-C, anti-c-Abl (Calbiochem, San Diego, Calif.), anti-lamin B (Oncogene, San Diego, Calif.), anti-IκBα (Santa Cruz Biotechnology, Santa Cruz, Calif.), anti-GFP (BD Biosciences, San Jose, Calif.), anti-Flag (Sigma, St. Louis, […].), anti-β-actin (Sigma, St. Louis, Mo.), anti-phospho-c-Abl-[…] (Cell Signaling Technology), anti-14-3-3 (Santa Cruz Biotechnology, Santa Cruz, Calif.), anti-PKC5 (Santa Cruz Biotechnology), anti-HSP60 (BD Biosciences, San Jose, Calif.), anti-PCNA (Oncogene), or anti-calnexin (Stressgen, San Diego, Calif.) antibodies.” for “hour.”

How did the “CDDP-induced targeting of cytosolic c-Abl to the nucleus” value (c-Abl; HCT116/MUC1(Y46F) cells, CDDP, 0, 2 or 4 hours) turn out when `[NH2][Pt]([NH2])([Cl])[Cl]` [CDDP, cisplatin] was run?
Its value is “blocked CDDP-induced targeting of cytosolic c-Abl to the nucleus”.

And the “effect of MUC1(Y60F) on CDDP-induced targeting of c-Abl to the nucleus” value (c-Abl; HCT116/MUC1(Y60F) cells, CDDP, 2 and 4 hours)?
The value was “little if any effect”.

And the “nuclear targeting of c-Abl” value (c-Abl; HCT116/MUC1 cells, CDDP, 2 and 4 hours)?
The value was “blocked nuclear targeting of c-Abl”.

And the “nuclear targeting of c-Abl” value (c-Abl; HCT116/vector cells, CDDP, 2 and 4 hours)?
Its value is “c-Abl was targeted to the nucleus”.

And the “binding of MUC1 with c-Abl” value (MUC1 and c-Abl)?
The value was “increased binding of MUC1”.

Source: patent US20080107661A1, “MUC1 and ABL” (Dana-Farber Cancer Institute, Inc., priority 2006, published 2008)
